Tested on: HL60 cells
Test: On-chip TMR study: laser-enhanced TMR fluorescence response of docked cells in tapered microchannel device
Type: cell-based
Details: Homo sapiens, HL-60, light or radiation study; HL60 cells docked on upper sandbag, on-chip serial dilution of TMR, fast Helium-Neon laser irradiation (~70 ms/ROI) for 3 more minutes; 50% intensity; read-out: EC50 of TMR concentration required to trigger the enhanced fluorescence response
Excerpt: It was the highly compact design of this microdevice that facilitated the comparative study between large amounts of cells on two sandbag components. […] However, only a region of interest (ROI) on the upper sandbag was subjected to fast laser irradiation (˜70 ms/ROI of Helium-Neon laser) for 3 more minutes. A confocal image of both sandbags after the fast irradiation was developed.
Furthermore, despite the large ROI coverage over the upper sandbag, the enhanced response was evidenced for the cells incubated at higher TMR concentration near the sandbag rear. Therefore, the conclusion is that the enhanced response was at least related to 1) concentration of TMR and 2) the amount of laser irradiation.
Referring to FIG. 30, photomicrographs are shown one on top of the other, with the top photomicrograph showing cells docked on both sandbags but only those encircled by the black dotted framework are subjected to laser irradiation. […] The purpose of these photomicrographs is to show the power of the microchip to perform rapid analysis and retrieve effective concentration of a photodynamic therapy drug candidate that is sensitive to light irradiation.
The response profiles of cells docked on the upper and lower sandbags of FIG. 30 are plotted in FIG. 31. […] Note further that there is an average peak in intensity at a 3.73 μM at 50% intensity. […]

CN(C)c1ccc2c(-c3ccc(CCl)cc3)c3ccc(=[N+](C)C)cc-3oc2c1 [TMR, Tetramethylrosamine]
EC50: 3.73 µM

Source: US20080020368A1, “Method and apparatus for exposing cells to different concentrations of analytes or drugs” (priority 2006, published 2008)
